One compound from ChEMBL document CHEMBL4371044, “Celastrol Promotes Weight Loss in Diet-Induced Obesity by Inhibiting the Protein Tyrosine Phosphatases PTP1B and TCPTP in the Hypothalamus” (J Med Chem, 2018) can be followed below.

One test deals with Mus musculus. As to the kind of experiment: Antiobesity activity in high fat diet-induced obese Ptpn1fl/fl null C57BL/6 mouse assessed as hypophagia at 100 ug/kg, ip for 10 consecutive days. In kind it is functional, organism-based.
In test [1] the target is T1, Tyrosine-protein phosphatase non-receptor type 1 (Homo sapiens) (UniProt P18031).
T1 sequence (whole entry): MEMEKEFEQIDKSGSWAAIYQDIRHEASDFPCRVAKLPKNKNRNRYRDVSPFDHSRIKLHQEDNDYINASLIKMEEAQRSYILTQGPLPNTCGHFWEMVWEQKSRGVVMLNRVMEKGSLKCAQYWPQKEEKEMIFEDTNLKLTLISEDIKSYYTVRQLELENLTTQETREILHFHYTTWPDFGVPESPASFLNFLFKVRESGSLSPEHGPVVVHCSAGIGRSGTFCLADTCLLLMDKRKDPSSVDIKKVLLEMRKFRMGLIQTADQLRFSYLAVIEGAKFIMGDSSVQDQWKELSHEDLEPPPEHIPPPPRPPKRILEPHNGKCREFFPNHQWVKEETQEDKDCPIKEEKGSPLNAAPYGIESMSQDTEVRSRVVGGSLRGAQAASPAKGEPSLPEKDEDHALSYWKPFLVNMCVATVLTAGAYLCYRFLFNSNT
The test can be described thus: Binding affinity to human N-terminal His6-tagged PTP1B catalytic domain (1 to 298 residues) expressed in Escherichia coli strain Rosetta2 (DE3) assessed as association half life using DiFMUP as substrate preincubated for 10 mins followed by substrate addition measured for 10 mins fluorescence assay.

Active and inactive are the calls of the source. No cut-off for these calls is given here.

With `CC1=C(O)C(=O)C=C2C1=CC=C1[C@@]2(C)CC[C@@]2(C)[C@@H]3C[C@](C)(C(=O)O)CC[C@]3(C)CC[C@]12C` [CELASTROL], in the test on Mus musculus, the outcome was Active. In addition, the T1/2 in test [1] is 31.9 min.
